Measured values as given in US11834698B2, “Process for determining enzyme activity in a cell by activity-based reporter gene technology (ABRGT)” (INDIAN INSTITUTE OF SCIENCE EDUCATION AND RESEARCH, priority 2018, dated 2023).
Peptide text beside a SMILES is read from it. * marks the point of attachment. Cbz = O=C(OCc1ccccc1)*; CH2F = FC*

What was measured:
caspase-8 GFPspark = target: T1, caspase-8 GFPspark (Homo sapiens, UniProt Q14790); assay: AbRGT FRET imaging / acceptor photobleaching, caspase-8 GFPspark in HEK-293 cells; assay type: cell-based
T1 construct: host or cells: HEK-293
Procedure: FIG. 15 depicts confocal images of MCF-7 cells in GFP, FRET and Rh channel Caspase-7 GFPspark transfected MCF-7 cells were treated with STS (1 μM) for 6 h and labelled (a) (i) with probe 1 (1 μM) probe. Cells were pre-treated with (a) (ii) Z-VAD-FMK (50 μM) or (a) (iii) Q-VD-OPh (50 μM) pan-caspase inhibitors 1 h before the probe labelling. Caspase-9 GFPspark transfected MCF-7 cells were treated with STS (1 μM) for 4 h and labelled (b) (i) with probe 1 (1 μM) probe. Cells were pre-treated with (b) (ii) Z-VAD-FMK (50 μM) 1 h before probe labelling. Caspase-8 GFPspark overexpressing HEK-293 cells were treated with TRAIL (1 μg/ml) for 5 h and labelled (c) (i) with the probe 1. Cells were pre-treated with (c) (ii) Z-VAD-FMK (50 μM) 1 h before probe labelling.
FIG. 18 depicts specific detection of caspase-8 GFPspark in HEK-293 cells. Casp-8 GFPspark (1 μg) transfected HEK-293 cells were treated with TRAIL ([…]) for 6 h and labelled with the probe 1 (1 μM) for 2 h. Cells were washed, fixed and the fluorescence signal was collected in GFP, FRET and Rh channels. The acceptor photobleaching experiment was performed to confirm the FRET signal as described previously. The bar graph representing a rise in GFP intensity in ROI after rhodamine photobleaching was 82 a.u. as compared to the unbleached background, i.e., 11 a.u. The FRET efficiency was calculated to be 31±1%.
(§1) Plasmids and transient transfection: GFPspark tagged plasmids; caspase-3 GFPspark tag (Cat: HG10050-ACG), caspase-7 GFPspark tag (HG10049-ACG), caspase-8 GFPspark (HG10078-ACG), caspase-9 GFPspark (HG11151-ACG) and cathepsin B GFPspark (HG10483-ACG) were procured from Sino Biological. For transfection, cells were seeded in a 6-well plate at a density of 0.4 million cells/well. At 60-70% confluency, cells were transiently transfected for 24 h at 37° C. with 1 μg of the GFPspark tagged plasmid DNA construct mixed with 5 μL of Lipofectamine 2000 (Invitrogen) according to the manufacturer's instructions. 24 h post-transfection, cells were visualized under the GFP filter for GFPspark expression under fluorescence microscope at 10× magnification.
Labelling of active caspases in apoptotic cells with FABP: After 24 h of transfection, cells were treated with STS (1 μM) drug or TRAIL (1 μg/ml) for apoptotic induction and incubated for 2, 4, 6 and 8 h at 37° C. in a humidified atmosphere of 5% CO2/95% air. Cells were gently scraped off from the surface at the end of apoptotic induction and centrifuged at 3000 rpm for 5 min. […] Slides were then imaged for GFP, FRET and rhodamine fluorescence signals under confocal microscopy. […]
Fluorescence imaging studies, FRET procedure: Images were collected on Zeiss LSM710 confocal microscope with 25 mW argon laser using Zen10 software. […]

cathepsin B GFPspark = target: T2, cathepsin B GFPspark (Homo sapiens, UniProt P07858); assay: AbRGT FRET imaging / acceptor photobleaching, cathepsin B GFPspark in HEK-293 cells; assay type: cell-based
T2 construct: GFPspark (C); host or cells: HEK-293
Procedure: FIG. 20 depicts confocal images of HEK-293 cells in GFP, FRET and Rh channel Cathepsin B GFPspark transfected HEK-293 cells were treated with STS (1 μM) for 4 h and labelled (a) (i) with or (a) (iv) without probe 1. Cells were pre-treated with (a) (ii) Z-VAD-FMK (50 μM) or (a) (iii) E-64 (50 μM) inhibitor 1 h before the probe 1 labelling. (b) Quantification of the change in GFPS fluorescence intensity after rhodamine photobleaching in both unbleached control region and rhodamine bleached region (ROI), using acceptor photo-bleaching method. Error bar represents the s.e.m for n=10 cells (*P<0.00001). Scale bar, 10 μm. a.u., arbitrary units.
as §1
Labelling of active caspases in apoptotic cells with FABP: After 24 h of transfection, cells were treated with STS (1 μM) drug or TRAIL (1 μg/ml) for apoptotic induction and incubated for 2, 4, 6 and 8 h at 37° C. in a humidified atmosphere of 5% CO2/95% air. Cells were gently scraped off from the surface at the end of apoptotic induction and centrifuged at 3000 rpm for 5 min. The cell pellet was resuspended in 300 μL of fresh DMEM containing 1 μM of probe for probe 2 and incubated for additional 2 h at 37° C. in a humidified atmosphere of 5% CO2. Cells were again centrifuged at 3000 rpm for 5 mins, and the supernatant was decanted. Cells were washed with 1×PBS, thrice finally resuspended in 20 μL of 1×PBS. The cell suspension was put on a slide, and a coverslip was placed over it. It was left for air drying. Slides were then imaged for GFP, FRET and rhodamine fluorescence signals under confocal microscopy.
Inhibitor assay: Cells were pre-treated with 50 μM of Z-VAD-FMK or Q-VD-OPh or E-64 inhibitor 1 h before probe 1 labelling and incubated for 1 h at 37° C. in a humidified atmosphere of 5% CO2. Cells were gently scraped off from the surface at the end of inhibitor treatment and centrifuged at 3000 rpm for 5 min Cells were then labelled with the probe 1 as described in the previous section.
Fluorescence imaging studies, FRET procedure: Images were collected on Zeiss LSM710 confocal microscope with 25 mW argon laser using Zen10 software. The laser was tuned to lines at 488 nm (excitation laser for GFPspark) and 561 nm (excitation laser for rhodamine) Cells were examined with a 40× 1.3 NA Zeiss oil immersion objective and 2.4× zoom. Images were collected in the three channels; GFP channel, argon laser tuned at 488 nm with 2% laser intensity and fluorescence emission was collected in emission range of 490-550 nm; rhodamine channel, argon laser tuned to 561 nm laser with 2% laser intensity and fluorescence emission was collected in range 550-650 nm and FRET channel with excitation laser of GFPSPARK channel and emission range of rhodamine channel. […]

[1] = HEK-293, TRAIL 6 h, probe 1 μM 2 h
[2] = HEK-293, TRAIL, Z-VAD-FMK pre-treatment
[3] = HEK-293, inhibitor 50 μM 1 h before probe 1 labelling, STS 4 h

T1 sequence (Q14790 217-374 limits assumed): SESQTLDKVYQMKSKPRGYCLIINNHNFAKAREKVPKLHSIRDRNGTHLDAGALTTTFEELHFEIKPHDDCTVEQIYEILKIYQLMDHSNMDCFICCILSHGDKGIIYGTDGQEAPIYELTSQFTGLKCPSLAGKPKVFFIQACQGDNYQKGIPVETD
T1 sequence (Q14790 385-479 limits assumed): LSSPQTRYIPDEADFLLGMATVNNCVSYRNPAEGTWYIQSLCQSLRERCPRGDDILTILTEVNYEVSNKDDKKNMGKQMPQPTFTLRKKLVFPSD

effect of inhibitor on signal in FRET channel (caspase-8 GFPspark; [2]) | effect of inhibitor on signal in Rh channel (caspase-8 GFPspark; [2]) | effect of inhibitor on FRET signal (cathepsin B GFPspark; [3]) | Molecule | calculated FRET efficiency (caspase-8 GFPspark; [1]) | rise in GFP intensity in ROI after rhodamine photobleaching (caspase-8 GFPspark; [1]) | FRET efficiency (cathepsin B GFPspark; HEK-293, STS 1 μM 4 h, probe 1 μM 2 h, n=10 cells) | signal in Rh channel in presence of inhibitor (cathepsin B GFPspark; [3])
 |  |  | Rhodamine-VAD-fluoromethyl ketone [probe 1] | 31±1% | 82 a.u. | 37±1% | 
abolished | abolished | completely abolished | COC(=O)C[C@H](NC(=O)[C@H](C)NC(=O)[C@@H](NC(=O)OCc1ccccc1)C(C)C)C(=O)CF [Z-VAD-FMK] (Cbz-Val-Ala-Asp(OMe)-CH2F) |  |  |  | less intense fluorescence signal was still retained
